Measured values published in publication PMC3759900, “Acetylcholinesterase Reactivators (HI-6, Obidoxime, Trimedoxime, K027, K075, K127, K203, K282): Structural Evaluation of Human Serum Albumin Binding and Absorption Kinetics” (International Journal of Molecular Sciences, 2013).

Columns and labels:
[1] = Pharmacokinetic study, plasma concentration after i.m. injection (HPLC); settings: male Wister rats, description of plasma kinetic curves
[2] = target: Human Serum Albumin (HSA) (Homo sapiens, UniProt P02768); assay: HSA binding by ultrafiltration (Centrifree) and HPLC; settings: HSA 45 g/L in phosphate buffer saline, 90 min at 37 °C, mean of three independent measurements
Chain of Human Serum Albumin (HSA) (P02768 25-609): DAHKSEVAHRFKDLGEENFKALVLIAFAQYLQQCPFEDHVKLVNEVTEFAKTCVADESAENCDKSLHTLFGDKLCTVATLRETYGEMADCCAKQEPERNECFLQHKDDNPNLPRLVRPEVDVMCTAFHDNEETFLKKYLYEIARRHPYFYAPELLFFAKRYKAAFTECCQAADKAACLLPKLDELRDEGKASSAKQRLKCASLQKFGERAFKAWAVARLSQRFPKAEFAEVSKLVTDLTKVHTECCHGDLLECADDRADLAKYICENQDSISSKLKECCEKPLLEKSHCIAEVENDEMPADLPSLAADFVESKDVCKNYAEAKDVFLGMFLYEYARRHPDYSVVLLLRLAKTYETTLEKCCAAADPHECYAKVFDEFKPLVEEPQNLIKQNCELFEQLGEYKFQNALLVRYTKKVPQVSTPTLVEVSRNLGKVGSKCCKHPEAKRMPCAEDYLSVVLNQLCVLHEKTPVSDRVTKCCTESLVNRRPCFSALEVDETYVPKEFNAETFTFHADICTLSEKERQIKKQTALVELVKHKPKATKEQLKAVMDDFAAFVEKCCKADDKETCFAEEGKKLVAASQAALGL

Row | SMILES | Elimination from blood (kinetic curve profile) [1] | Binding to Human Serum Albumin (HSA) [2]
1 | O/N=C/c1cc[n+](COC[n+]2ccc(/C=N/O)cc2)cc1 [Obidoxime, obidoxime] | relatively fast elimination | 
2 | O/N=C/c1cc[n+](CCC[n+]2ccc(/C=N/O)cc2)cc1 [Trimedoxime, trimedoxime] | slow elimination from the blood | 6%
3 | O/N=C/c1cc[n+](C/C=C/C[n+]2ccc(/C=N/O)cc2)cc1 [K075] |  | 10%
4 | NC(=O)c1cc[n+](CCOCC[n+]2ccc(C=NO)cc2)cc1 [K127] |  | 4%
5 | ON=Cc1cc[n+](C/C=C\C[n+]2ccc(C=NO)cc2)cc1 [K282] |  | 12%
6 | NC(=O)c1cc[n+](CCC[n+]2ccc(/C=N/O)cc2)cc1 [K027] |  | 5%
7 | NC(=O)c1cc[n+](C/C=C/C[n+]2ccc(/C=N/O)cc2)cc1 [K203] |  | 15%
8 | NC(=O)c1cc[n+](COC[n+]2ccccc2/C=N/O)cc1 [HI-6] | slow elimination from the blood | 1%
